Laboratory results reported in the supplement of paper PMC4862054.

The molecules below were run on MFM-223 (assay: normalised response (% of control), CellTiter-Glo; higher = more viable cells (100 = DMSO, 0 = benzethonium chloride kill control)). Settings: incubation time: 72 h.
How it was run: (§1)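 Breast cancer cell lines in 20 µl suspension were added to 384-well plates containing compound at 5 concentrations, spaced in 10-fold steps across a 10,000-fold range chosen for each compound, and incubated for 72 h. CellTox Green fluorescence was read at 485/520 nm, followed by CellTiter-Glo luminescence after 10 min at room temperature. Signals on each plate were normalised so that 0.1 % DMSO equals 100 and a positive kill control equals 0. Every value in the table is the normalised signal at one concentration of the series.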
For `c1ccc([C@H]2CN3CCSC3=N2)cc1` [Levamisole] (1000 nM), the normalised response was 105%.
With `CN(C)C[C@@H]1CCn2cc(c3ccccc32)C2=C(C(=O)NC2=O)c2cn(c3ccccc23)CCO1` [Ruboxistaurin] (1000 nM) the normalised response was 86.8%.
With `CCCCCCCCc1ccc(CCC(N)(CO)CO)cc1` [Fingolimod] (1000 nM) the normalised response was 107%.
`CNNCc1ccc(C(=O)NC(C)C)cc1` [Procarbazine] (1000 nM) showed a normalised response of 101%.
`O=C1NC(=O)[C@@H](c2cn3c4c(cccc24)CCC3)[C@@H]1c1c[nH]c2ccccc12` [Tivantinib] (100 nM) showed a normalised response of 99%.
Molecule `O=C(O)CCCc1ccc(N(CCCl)CCCl)cc1` [Chlorambucil] (1000 nM) has a normalised response of 103%.
Work on `Nc1ncnc2c1c(COc1cccc(Cl)c1)nn2C1CCOCC1` (1000 nM) yielded a normalised response of 104%.
Molecule `Nc1nc(OCc2cc(Br)cs2)c2[nH]cnc2n1` [Lomeguatrib] (1000 nM) has a normalised response of 104%.
Molecule `CN(C)CCN1C(=O)c2cccc3cc(N)cc(c23)C1=O` [Amonafide] (1000 nM) has a normalised response of 101%.

The molecules below were run on MDA-MB-231 in the same assay as above. Settings: incubation time: 72 h.
How it was run: as §1
`c1ccc([C@H]2CN3CCSC3=N2)cc1` [Levamisole] (1000 nM) showed a normalised response of 104%.
In the case of `CN(C)C[C@@H]1CCn2cc(c3ccccc32)C2=C(C(=O)NC2=O)c2cn(c3ccccc23)CCO1` [Ruboxistaurin] (1000 nM), the normalised response is reported as 92.6%.
In the case of `CCCCCCCCc1ccc(CCC(N)(CO)CO)cc1` [Fingolimod] (1000 nM), the normalised response is reported as 94.3%.
For `CNNCc1ccc(C(=O)NC(C)C)cc1` [Procarbazine] (1000 nM), the normalised response was 107%.
Molecule `O=C1NC(=O)[C@@H](c2cn3c4c(cccc24)CCC3)[C@@H]1c1c[nH]c2ccccc12` [Tivantinib] (100 nM) has a normalised response of 99.2%.
Work on `O=C(O)CCCc1ccc(N(CCCl)CCCl)cc1` [Chlorambucil] (1000 nM) yielded a normalised response of 99.8%.
With `Nc1ncnc2c1c(COc1cccc(Cl)c1)nn2C1CCOCC1` (1000 nM) the normalised response was 104%.
For `Nc1nc(OCc2cc(Br)cs2)c2[nH]cnc2n1` [Lomeguatrib] (1000 nM), the normalised response was 103%.
For `CN(C)CCN1C(=O)c2cccc3cc(N)cc(c23)C1=O` [Amonafide] (1000 nM), the normalised response was 95.6%.

The molecules below were run on Hs578T in the same assay as above. Settings: incubation time: 72 h.
How it was run: as §1
For `c1ccc([C@H]2CN3CCSC3=N2)cc1` [Levamisole] (1000 nM), the normalised response was 101%.
In the case of `CN(C)C[C@@H]1CCn2cc(c3ccccc32)C2=C(C(=O)NC2=O)c2cn(c3ccccc23)CCO1` [Ruboxistaurin] (1000 nM), the normalised response is reported as 104%.
Molecule `CCCCCCCCc1ccc(CCC(N)(CO)CO)cc1` [Fingolimod] (1000 nM) has a normalised response of 99.9%.
`CNNCc1ccc(C(=O)NC(C)C)cc1` [Procarbazine] (1000 nM) was tested, and the normalised response was 109%.
Work on `O=C1NC(=O)[C@@H](c2cn3c4c(cccc24)CCC3)[C@@H]1c1c[nH]c2ccccc12` [Tivantinib] (100 nM) yielded a normalised response of 94.6%.
`O=C(O)CCCc1ccc(N(CCCl)CCCl)cc1` [Chlorambucil] (1000 nM) showed a normalised response of 105%.
`Nc1ncnc2c1c(COc1cccc(Cl)c1)nn2C1CCOCC1` (1000 nM) showed a normalised response of 97.1%.
Work on `Nc1nc(OCc2cc(Br)cs2)c2[nH]cnc2n1` [Lomeguatrib] (1000 nM) yielded a normalised response of 102%.
Work on `CN(C)CCN1C(=O)c2cccc3cc(N)cc(c23)C1=O` [Amonafide] (1000 nM) yielded a normalised response of 93.6%.

What follows are molecules tested on CAL-148 in the same assay as above. Settings: incubation time: 72 h.
How it was run: as §1
Work on `c1ccc([C@H]2CN3CCSC3=N2)cc1` [Levamisole] (1000 nM) yielded a normalised response of 103%.
`CN(C)C[C@@H]1CCn2cc(c3ccccc32)C2=C(C(=O)NC2=O)c2cn(c3ccccc23)CCO1` [Ruboxistaurin] (1000 nM) was tested, and the normalised response was 76.6%.
`CCCCCCCCc1ccc(CCC(N)(CO)CO)cc1` [Fingolimod] (1000 nM) was tested, and the normalised response was 101%.
Molecule `CNNCc1ccc(C(=O)NC(C)C)cc1` [Procarbazine] (1000 nM) has a normalised response of 104%.
With `O=C1NC(=O)[C@@H](c2cn3c4c(cccc24)CCC3)[C@@H]1c1c[nH]c2ccccc12` [Tivantinib] (100 nM) the normalised response was 96.9%.
For `O=C(O)CCCc1ccc(N(CCCl)CCCl)cc1` [Chlorambucil] (1000 nM), the normalised response was 95.5%.
For `Nc1ncnc2c1c(COc1cccc(Cl)c1)nn2C1CCOCC1` (1000 nM), the normalised response was 102%.
In the case of `Nc1nc(OCc2cc(Br)cs2)c2[nH]cnc2n1` [Lomeguatrib] (1000 nM), the normalised response is reported as 99.3%.
Work on `CN(C)CCN1C(=O)c2cccc3cc(N)cc(c23)C1=O` [Amonafide] (1000 nM) yielded a normalised response of 87.2%.

The molecules below were run on HCC1599 in the same assay as above. Settings: incubation time: 72 h.
How it was run: as §1
`c1ccc([C@H]2CN3CCSC3=N2)cc1` [Levamisole] (1000 nM) showed a normalised response of 98.4%.
For `CN(C)C[C@@H]1CCn2cc(c3ccccc32)C2=C(C(=O)NC2=O)c2cn(c3ccccc23)CCO1` [Ruboxistaurin] (1000 nM), the normalised response was 111%.
Work on `CCCCCCCCc1ccc(CCC(N)(CO)CO)cc1` [Fingolimod] (1000 nM) yielded a normalised response of 114%.
In the case of `CNNCc1ccc(C(=O)NC(C)C)cc1` [Procarbazine] (1000 nM), the normalised response is reported as 101%.
Molecule `O=C1NC(=O)[C@@H](c2cn3c4c(cccc24)CCC3)[C@@H]1c1c[nH]c2ccccc12` [Tivantinib] (100 nM) has a normalised response of 127%.
With `O=C(O)CCCc1ccc(N(CCCl)CCCl)cc1` [Chlorambucil] (1000 nM) the normalised response was 91.9%.
Molecule `Nc1ncnc2c1c(COc1cccc(Cl)c1)nn2C1CCOCC1` (1000 nM) has a normalised response of 113%.
With `Nc1nc(OCc2cc(Br)cs2)c2[nH]cnc2n1` [Lomeguatrib] (1000 nM) the normalised response was 118%.
For `CN(C)CCN1C(=O)c2cccc3cc(N)cc(c23)C1=O` [Amonafide] (1000 nM), the normalised response was 106%.

The molecules below were run on CAL-51 in the same assay as above. Settings: incubation time: 72 h.
How it was run: as §1
`c1ccc([C@H]2CN3CCSC3=N2)cc1` [Levamisole] (1000 nM) showed a normalised response of 73.4%.
`CN(C)C[C@@H]1CCn2cc(c3ccccc32)C2=C(C(=O)NC2=O)c2cn(c3ccccc23)CCO1` [Ruboxistaurin] (1000 nM) was tested, and the normalised response was 93%.
With `CCCCCCCCc1ccc(CCC(N)(CO)CO)cc1` [Fingolimod] (1000 nM) the normalised response was 80.5%.
Molecule `CNNCc1ccc(C(=O)NC(C)C)cc1` [Procarbazine] (1000 nM) has a normalised response of 78.5%.
Work on `O=C1NC(=O)[C@@H](c2cn3c4c(cccc24)CCC3)[C@@H]1c1c[nH]c2ccccc12` [Tivantinib] (100 nM) yielded a normalised response of 115%.
`O=C(O)CCCc1ccc(N(CCCl)CCCl)cc1` [Chlorambucil] (1000 nM) was tested, and the normalised response was 108%.
`Nc1ncnc2c1c(COc1cccc(Cl)c1)nn2C1CCOCC1` (1000 nM) gave a normalised response of 105%.
Work on `Nc1nc(OCc2cc(Br)cs2)c2[nH]cnc2n1` [Lomeguatrib] (1000 nM) yielded a normalised response of 103%.
In the case of `CN(C)CCN1C(=O)c2cccc3cc(N)cc(c23)C1=O` [Amonafide] (1000 nM), the normalised response is reported as 113%.

The molecules below were run on BT-549 in the same assay as above. Settings: incubation time: 72 h.
How it was run: as §1
Molecule `c1ccc([C@H]2CN3CCSC3=N2)cc1` [Levamisole] (1000 nM) has a normalised response of 100%.
`CN(C)C[C@@H]1CCn2cc(c3ccccc32)C2=C(C(=O)NC2=O)c2cn(c3ccccc23)CCO1` [Ruboxistaurin] (1000 nM) showed a normalised response of 91.1%.
For `CCCCCCCCc1ccc(CCC(N)(CO)CO)cc1` [Fingolimod] (1000 nM), the normalised response was 99.3%.
In the case of `CNNCc1ccc(C(=O)NC(C)C)cc1` [Procarbazine] (1000 nM), the normalised response is reported as 98.7%.
`O=C1NC(=O)[C@@H](c2cn3c4c(cccc24)CCC3)[C@@H]1c1c[nH]c2ccccc12` [Tivantinib] (100 nM) gave a normalised response of 92.4%.
With `O=C(O)CCCc1ccc(N(CCCl)CCCl)cc1` [Chlorambucil] (1000 nM) the normalised response was 111%.
For `Nc1ncnc2c1c(COc1cccc(Cl)c1)nn2C1CCOCC1` (1000 nM), the normalised response was 88.6%.
In the case of `Nc1nc(OCc2cc(Br)cs2)c2[nH]cnc2n1` [Lomeguatrib] (1000 nM), the normalised response is reported as 96.6%.
`CN(C)CCN1C(=O)c2cccc3cc(N)cc(c23)C1=O` [Amonafide] (1000 nM) showed a normalised response of 97.2%.

The molecules below were run on DU-4475 in the same assay as above. Settings: incubation time: 72 h.
How it was run: as §1
`c1ccc([C@H]2CN3CCSC3=N2)cc1` [Levamisole] (1000 nM) showed a normalised response of 99.2%.
With `CN(C)C[C@@H]1CCn2cc(c3ccccc32)C2=C(C(=O)NC2=O)c2cn(c3ccccc23)CCO1` [Ruboxistaurin] (1000 nM) the normalised response was 80.7%.
`CCCCCCCCc1ccc(CCC(N)(CO)CO)cc1` [Fingolimod] (1000 nM) showed a normalised response of 100%.
`CNNCc1ccc(C(=O)NC(C)C)cc1` [Procarbazine] (1000 nM) was tested, and the normalised response was 94.8%.
With `O=C1NC(=O)[C@@H](c2cn3c4c(cccc24)CCC3)[C@@H]1c1c[nH]c2ccccc12` [Tivantinib] (100 nM) the normalised response was 96.5%.
Molecule `O=C(O)CCCc1ccc(N(CCCl)CCCl)cc1` [Chlorambucil] (1000 nM) has a normalised response of 105%.
Molecule `Nc1ncnc2c1c(COc1cccc(Cl)c1)nn2C1CCOCC1` (1000 nM) has a normalised response of 102%.
Molecule `Nc1nc(OCc2cc(Br)cs2)c2[nH]cnc2n1` [Lomeguatrib] (1000 nM) has a normalised response of 102%.
In the case of `CN(C)CCN1C(=O)c2cccc3cc(N)cc(c23)C1=O` [Amonafide] (1000 nM), the normalised response is reported as 87.1%.

These molecules were tested on HDQ-P1 in the same assay as above. Settings: incubation time: 72 h.
How it was run: as §1
For `c1ccc([C@H]2CN3CCSC3=N2)cc1` [Levamisole] (1000 nM), the normalised response was 106%.
`CN(C)C[C@@H]1CCn2cc(c3ccccc32)C2=C(C(=O)NC2=O)c2cn(c3ccccc23)CCO1` [Ruboxistaurin] (1000 nM) gave a normalised response of 85.8%.
Molecule `CCCCCCCCc1ccc(CCC(N)(CO)CO)cc1` [Fingolimod] (1000 nM) has a normalised response of 103%.
With `CNNCc1ccc(C(=O)NC(C)C)cc1` [Procarbazine] (1000 nM) the normalised response was 103%.
`O=C1NC(=O)[C@@H](c2cn3c4c(cccc24)CCC3)[C@@H]1c1c[nH]c2ccccc12` [Tivantinib] (100 nM) showed a normalised response of 105%.
Work on `O=C(O)CCCc1ccc(N(CCCl)CCCl)cc1` [Chlorambucil] (1000 nM) yielded a normalised response of 97.4%.
Work on `Nc1ncnc2c1c(COc1cccc(Cl)c1)nn2C1CCOCC1` (1000 nM) yielded a normalised response of 107%.
In the case of `Nc1nc(OCc2cc(Br)cs2)c2[nH]cnc2n1` [Lomeguatrib] (1000 nM), the normalised response is reported as 102%.
